Legend:
Type in all cases: cell-based
[1] = tested on: Trichophyton rubrum; assay: Antifungal activity in vitro, resazurin growth inhibition screen: Trichophyton rubrum; settings: Trichophyton rubrum B68183
In short: (§1)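 Top in-test concentration 64 μM, serial 2- or 4-fold steps. Inoculum 10^3 cfu per well, RPMI-MOPS medium. Resazurin read-out normalised to no-drug and no-fungus controls.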

[2] = tested on: Rhizomucor miehei; assay: Antifungal activity in vitro, resazurin growth inhibition screen: Rhizomucor miehei; settings: Rhizomucor miehei IHEM13391
Description: (§2) The standard susceptibility screen was performed in 96-well plates (U-bottom, Greiner Bio-One). Serial dilutions (2-fold or 4-fold) of 20 mM compound stock solutions were made in 100% DMSO, followed by an intermediate dilution step in water. These serial dilutions (10 μl) were then spotted onto test-plates that could be stored in the dark at 4° C. for a maximum period of 2 weeks. An adequate broad dose-range was included with 64 μM as the highest in-test concentration. […] The different fungal species/isolates (Table 3a) were cryopreserved and 1/1000 diluted in medium just prior to use. A standard inoculum of 200 μl containing 10^3 colony-forming unit (cfu) was then added to each well. A positive control (100% growth=fungal culture without antifungal) and a negative control (0% growth=RPMI-MOPS medium) were included on each plate.

[3] = tested on: Microsporum canis; assay: Antifungal activity in vitro, resazurin growth inhibition screen: Microsporum canis; settings: Microsporum canis B68128
In short: as §1

[4] = tested on: Candida parapsilosis; assay: Antifungal activity in vitro, resazurin growth inhibition screen: Candida parapsilosis; settings: Candida parapsilosis B66126
In short: as §1

[5] = tested on: Sporothrix schenkii; assay: Antifungal activity in vitro, resazurin growth inhibition screen: Sporothrix schenkii; settings: Sporothrix schenkii B62482
In short: as §1

[6] = tested on: Aspergillus fumigatus; assay: Antifungal activity in vitro, resazurin growth inhibition screen: Aspergillus fumigatus; settings: Aspergillus fumigatus B42928
In short: as §1

[7] = tested on: Scedosporium prolificans; assay: Antifungal activity in vitro, resazurin growth inhibition screen: Scedosporium prolificans; settings: Scedosporium prolificans IHEM21157
Description: as §2

[8] = tested on: Trichophyton mentagrophytes; assay: Antifungal activity in vitro, resazurin growth inhibition screen: Trichophyton mentagrophytes; settings: Trichophyton mentagrophytes B70554
In short: as §1

[9] = tested on: Rhizopus oryzae; assay: Antifungal activity in vitro, resazurin growth inhibition screen: Rhizopus oryzae; settings: Rhizopus oryzae IHEM5223
Description: as §2

[10] = tested on: Cryptococcus neoformans; assay: Antifungal activity in vitro, resazurin growth inhibition screen: Cryptococcus neoformans; settings: Cryptococcus neoformans B66663
In short: as §1

[11] = tested on: Scedosporium apiospermum; assay: Antifungal activity in vitro, resazurin growth inhibition screen: Scedosporium apiospermum; settings: Scedosporium apiospermum IHEM3817
Description: as §2

| SMILES | Inf. C pIC50 [1] | Inf. K pIC50 [2] | Inf. B pIC50 [3] | Inf. D pIC50 [4] | Inf. A pIC50 [5] | Inf. E pIC50 [6] | Inf. I pIC50 [7] | Inf. G pIC50 [8] | Inf. J pIC50 [9] | Inf. F pIC50 [10] | Inf. H pIC50 [11] | other results |
| --- | --- | --- | --- | --- | --- | --- | --- | --- | --- | --- | --- | --- |
| Clc1cc(Cl)c2c(c1)-n1cccc1C(c1ccc3c(c1)CCC3)=NC2 [Compound 23, 7,9-dichloro-4-(2,3-dihydro-1H-inden-5-yl)-6H-pyrrolo[1,2-a][1,4]benzodiazepine] |  |  |  |  |  |  |  |  |  |  |  | IC50 ([1]; read-out: Inf. C pIC50 (converted)): 0.676 µM; IC50 ([2]; read-out: Inf. K pIC50 (converted)): > 64.6 µM; IC50 ([3]; read-out: Inf. B pIC50 (converted)): 1 µM; IC50 ([4]; Lodderomyces parapsilosis, read-out: Inf. D pIC50 (converted)): 2 µM; IC50 ([5]; read-out: Inf. A pIC50 (converted)): 33.9 µM; IC50 ([6]; read-out: Inf. E pIC50 (converted)): 0.912 µM; IC50 ([7]; Lomentospora prolificans, read-out: Inf. I pIC50 (converted)): 0.603 µM; IC50 ([8]; read-out: Inf. G pIC50 (converted)): 0.794 µM; IC50 ([9]; Rhizopus arrhizus, read-out: Inf. J pIC50 (converted)): > 64.6 µM; IC50 ([10]; read-out: Inf. F pIC50 (converted)): 0.457 µM; IC50 ([11]; read-out: Inf. H pIC50 (converted)): 24 µM |
| Fc1cc(F)c2c(c1)-n1cccc1C(c1ccc3c(c1)OC(F)(F)O3)=NC2 [Compound 78, 4-(2,2-difluoro-1,3-benzodioxol-5-yl)-7,9-difluoro-6H-pyrrolo[1,2-a][1,4]benzo-diazepine] | 6.85 | <4.19 | 6.26 | 5.64 | 5.28 | 6.44 | 5.98 | 6.24 | <4.19 | <4.19 | 4.19 |  |
| FC1(F)Oc2ccc(C3=NCc4ccc(Cl)cc4-n4cccc43)cc2O1 [Compound 75, 9-chloro-4-(2,2-difluoro-1,3-benzodioxol-5-yl)-6H-pyrrolo[1,2-a][1,4]benzo-diazepine] | 6.85 | <4.19 | 5.74 | 5.09 | 4.85 | 6.24 | <4.19 | 6.42 | <4.19 | 5.84 | <4.19 |  |
| Fc1cccc2c1CN=C(c1ccc3c(c1)CCOC3)c1cccn1-2 [Compound 39, 4-(3,4-dihydro-1H-2-benzopyran-6-yl)-7-fluoro-6H-pyrrolo[1,2-a][1,4]benzo-diazepine] | 6.89 | 4.38 | 6.36 | 5.83 | 4.95 | 6.77 | 5.76 | 6.54 | <4.19 | 5.21 | 5.40 |  |
| Br.Clc1cccc2c1CNC(c1ccc3c(c1)CCC3)c1cccn1-2 (centres unmarked) [Compound 13, 7-chloro-4-(2,3-dihydro-1H-inden-5-yl)-5,6-dihydro-4H-pyrrolo[1,2-a][1,4]benzo-diazepine .HBr] | 6.47 | <4.19 | 6.36 | 5.52 | 5.15 | 5.70 | 5.72 | 6.95 | <4.19 | 5.30 | 4.52 |  |
| FC1(F)Oc2ccc(C3=NCc4c(Cl)cccc4-n4cccc43)cc2O1 [Compound 74, 7-chloro-4-(2,2-difluoro-1,3-benzodioxol-5-yl)-6H-pyrrolo[1,2-a][1,4]benzo-diazepine] | 7.39 | <4.19 | 6.87 | <4.19 | <4.19 | 7.08 | 7.05 | 6.58 | <4.19 | <4.19 | 5.5 |  |
| Clc1cccc2c1CN=C(c1ccc3c(c1)CCOC3)c1cccn1-2 [Compound 37, 7-chloro-4-(3,4-dihydro-1H-2-benzopyran-6-yl)-6H-pyrrolo[1,2-a][1,4]benzo-diazepine] | 6.89 | <4.19 | 6.62 | 5.79 | 5.26 | 6.77 | 5.85 | 6.47 | <4.19 | 5.88 | 4.48 |  |
